In patent JP2015013808A, “G2/m期停止及び細胞死を誘導するベンゾヒドラジド誘導体” (Kyushu University NUC, priority 2011, dated 2013):
Read-outs that look alike come from different tables or passages of the source.

Key:
[1] = tested on: human cancer cells [ヒトがん細胞]; assay: Growth inhibition / cytotoxicity in cancer cell lines (summary over lines); format: cell-based; conditions: for anticancer activity / inhibitory effect on cancer cell lines (in words): 48 h, MTS; for cancer cell selectivity of growth inhibition and cytotoxicity (in words): cancer cells versus normal fibroblasts
[2] = tested on: HFF2/T cells (normal human fibroblast line immortalized by introduction of human telomerase) [HFF2/T細胞(ヒトテロメラーゼの導入により不死化した正常ヒト線維芽細胞株)]; assay: MTS growth inhibition assay, HFF2/T normal fibroblasts; format: cell-based; conditions: 48 h
[3] = tested on: human cancer cells [ヒトがん細胞]; assay: FACS cell cycle analysis (summary, cell line not specified); format: cell-based
[4] = tested on: HeLa cells (cervical cancer-derived cell line) [HeLa細胞(子宮頸癌由株細胞株)]; assay: MTS growth inhibition assay, HeLa; format: cell-based, human; conditions: 48 h
[5] = tested on: H1299 cells (lung cancer-derived cell line) [H1299細胞(肺がん由来細胞株)]; assay: MTS growth inhibition assay, H1299; format: cell-based, human; conditions: 48 h
[6] = tested on: T98G cells (glioblastoma-derived cell line) [T98G細胞(グリオブラストーマ由来細胞株)]; assay: MTS growth inhibition assay, T98G; format: cell-based, human; conditions: 48 h
[7] = tested on: T98G cells [T98G細胞]; assay: FACS cell cycle analysis, T98G; format: cell-based, human; conditions: 10 μM, 24 h
[8] = tested on: HFF2/T cells [HFF2/T細胞]; assay: FACS cell cycle analysis, HFF2/T normal fibroblasts; format: cell-based, human; conditions: 10 μM, 24 h
[9] = biological target: T1, Cdt1-geminin binding [Cdt1-geminin結合] (Homo sapiens, UniProt O75496+Q9H211); assay: In vitro Cdt1-geminin binding inhibition assay (modified ELISA)
T1 construct: made in house
T1 sequence (Q9H211 1-546): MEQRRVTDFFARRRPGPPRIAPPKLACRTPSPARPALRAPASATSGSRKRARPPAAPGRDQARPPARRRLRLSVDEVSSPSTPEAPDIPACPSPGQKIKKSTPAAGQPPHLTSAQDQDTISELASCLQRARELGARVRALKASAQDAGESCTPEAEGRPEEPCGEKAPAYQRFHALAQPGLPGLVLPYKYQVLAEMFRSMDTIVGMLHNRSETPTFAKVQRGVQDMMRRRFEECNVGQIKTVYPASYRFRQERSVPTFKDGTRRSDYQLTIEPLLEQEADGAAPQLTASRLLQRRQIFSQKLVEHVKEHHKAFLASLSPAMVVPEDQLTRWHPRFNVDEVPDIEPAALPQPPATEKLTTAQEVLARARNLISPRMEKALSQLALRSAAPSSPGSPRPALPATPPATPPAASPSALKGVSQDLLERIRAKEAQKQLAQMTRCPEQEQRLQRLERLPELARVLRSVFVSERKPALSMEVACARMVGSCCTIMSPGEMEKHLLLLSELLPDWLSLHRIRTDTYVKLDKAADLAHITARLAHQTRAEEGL
T1 sequence (O75496 1-209): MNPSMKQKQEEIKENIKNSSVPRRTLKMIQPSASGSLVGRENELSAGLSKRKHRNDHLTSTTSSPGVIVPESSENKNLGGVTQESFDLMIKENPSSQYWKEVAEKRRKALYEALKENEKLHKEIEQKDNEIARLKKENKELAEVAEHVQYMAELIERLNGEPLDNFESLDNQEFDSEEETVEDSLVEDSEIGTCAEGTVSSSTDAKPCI

Question: For `CCn1c2ccccc2c2cc(/C=N/NC(=O)c3ccc(O)cc3O)ccc21` [(E)-N'-((9-エチル-9H-カルバゾール-3-イル)メチレン)-2,4-ジヒドロキシベンゾヒドラジド], which “toxicity toward certain cancer cell lines (in words)” value ([1]; certain cancer cell lines, not specified) is on record?
Answer: ある種のがん細胞株に対する毒性が低下する

Question: `CCn1c2ccccc2c2cc(/C=N/NC(=O)c3ccccc3C)ccc21` [HND-007, (E)-N'-((9-Ethyl-9H-carbazol-3-yl)methylene)-2-methylbenzohydrazide] was tested. Which “growth inhibition / toxicity toward normal fibroblasts or normal cells (in words)” value [2] did it give?
Answer: 正常線維芽細胞に対しても高い毒性を示す

Question: What about the “growth inhibition / toxicity toward normal fibroblasts or normal cells (in words)” value ([2]; listed as 2- methyl体) of the same molecule?
Answer: 正常細胞に対しても高い毒性を示す場合がある

Question: What about the “anticancer activity / inhibitory effect on cancer cell lines (in words)” value (“anticancer activity / inhibitory effect” for short) ([1]; listed as 2- methyl体) of the same molecule?
Answer: がん細胞株に対する抑制効果を高める

Question: What about the “anticancer activity / inhibitory effect” value ([1]; listed as (E)-N'-((9-エチル-9H-カルバゾール-3-イル)メチレン)-2-メチルベンゾヒドラジド) of the same molecule?
Answer: 殺細胞性が高い

Question: And the “cancer cell selectivity of growth inhibition and cytotoxicity (in words)” value [1]?
Answer: 選択性は低く

Question: What about the “cell cycle phase inhibited” value [3] of the same molecule?
Answer: 主にM期の進行阻害を行っているものと予想される

Question: What does the source list for `CCn1c2ccccc2c2cc(/C=N/NC(=O)c3ccccc3I)ccc21` [NP-10, (E)-N'-((9-Ethyl-9H-carbazol-3-yl)methylene)-2-iodobenzohydrazide]?
Answer: 50% growth inhibitory concentration [4]: 数; 50% growth inhibitory concentration [5]: 数; 50% growth inhibitory concentration [6]: 数; concentration needed for 50% growth inhibition of HFF2/T relative to HeLa ([2]; HFF2/T versus HeLa): ~10 fold; growth inhibition / toxicity toward normal fibroblasts or normal cells (in words) [2]: 正常線維芽細胞に対する増殖抑制効果は低い; effect on cell cycle [7]: 主にS期で停止; effect on cell cycle progression [8]: 細胞周期進行に影響を与えなかった; effect on cell cycle progression ([8]; listed as 2-iodo体): 正常細胞の細胞周期の進行に影響を与えず; Cdt1-geminin binding inhibitory activity (in words) [9]: Cdt1-geminin結合の阻害活性は示さない; cancer cell selectivity of growth inhibition and cytotoxicity (in words) [1]: がん細胞選択的に細胞増殖を阻害し、細胞毒性を発揮した; cancer cell selectivity of growth inhibition and cytotoxicity (in words) ([1]; listed as 2-iodo体): がん細胞選択的に細胞増殖を阻害し、細胞毒性を発揮する; cancer cell selectivity of growth inhibition and cytotoxicity (in words) ([1]; listed as 2-ヨード体): がん細胞に対して選択的に毒性を発揮する; concentration that inhibits growth of human cancer cells ([1]; human cancer cells, lines not specified): 数; cell death ([1]; human cancer cells, several μM): 細胞死; cell cycle phase inhibited [3]: 主にM期の進行阻害; cell cycle phase inhibited ([3]; listed as 2-iodo体): 主にM期の進行阻害

Question: How did the “anticancer activity / inhibitory effect” value [1] turn out when `CCn1c2ccccc2c2cc(/C=N/NC(=O)c3cccc(I)c3)ccc21` [NP-13, (E)-N'-((9-Ethyl-9H-carbazol-3-yl)methylene)-3-iodobenzohydrazide] was run?
Answer: 抗がん活性を失ってしまう

Question: And the “anticancer activity / inhibitory effect” value ([1]; listed as 3-iodo体)?
Answer: 抗がん活性が比較的低く

Question: Which results are given for `CCn1c2ccccc2c2cc(/C=N/NC(=O)c3ccc(I)cc3)ccc21` [NP-14, (E)-N'-((9-Ethyl-9H-carbazol-3-yl)methylene)-4-iodobenzohydrazide]?
Answer: growth inhibition / toxicity toward normal fibroblasts or normal cells (in words) [2]: 正常線維芽細胞に対しても高い毒性を示す; growth inhibition / toxicity toward normal fibroblasts or normal cells (in words) ([2]; listed as 4-iodo体): 正常線維芽細胞に対しても高い毒性を示しうる; Cdt1-geminin binding inhibitory activity (in words) ([9]; listed as 4-iodo体): Cdt1-gemininの試験管内での結合を阻害しうる; Cdt1-geminin binding inhibitory activity (in words) ([9]; listed as 4-ヨード体): Cdt1-geminin結合阻害活性を持ち; IC50 ([9]; read-out: 50% binding inhibitory concentration, Cdt1-geminin): ~40 µM; anticancer activity / inhibitory effect on cancer cell lines (in words) [1]: NP-10と同等あるいはより高い抗がん活性を示す; anticancer activity / inhibitory effect on cancer cell lines (in words) ([1]; listed as 4-iodo体): 2-iodo体と同等、あるいはより高い抗がん活性を示す; anticancer activity / inhibitory effect on cancer cell lines (in words) ([1]; listed as 4-ヨード体): 抗がん活性も示した; cancer cell selectivity of growth inhibition and cytotoxicity (in words) [1]: がん細胞選択性は低下していた

Question: With `CCn1c2ccccc2c2cc(C=O)ccc21` [Y-R1, N-ethylcarbazole-3-carboxaldehyde, reference compound] as the molecule, how does the “cancer cell selectivity of growth inhibition and cytotoxicity (in words)” value [1] read?
Answer: そのような効果は認められなかった

Question: `NNC(=O)c1ccccc1I` [Y-R2, 2-iodobenzohydrazide, reference compound] was tested. Which “cancer cell selectivity of growth inhibition and cytotoxicity (in words)” value [1] did it give?
Answer: そのような効果は認められなかった
